Test results published in patent publication US11325916B1, “Spiropyrrolidine derived antiviral agents” (priority 2021, dated 2022).
Read-outs that look alike come from different tables or passages of the source.

Legend:
[1] = target: SARS-CoV-2 3CL-protease (Severe acute respiratory syndrome coronavirus 2 (2019-nCoV) (SARS-CoV-2), UniProt P0DTD1); assay: SARS-CoV-2 3C-Like (3CL) Protease Fluorescence Assay (FRET); assay type: biochemical
[2] = test system: 229E human corona virus (hCoV); assay: 229E Live Virus Assay (MRC-5 cells, CPE, ATPlite readout); assay type: cell-based, hCoV-229E; details: Human coronavirus 229E, MRC5, 144 h, read-out: 229E EC50
[3] = MRC-5 cells, hCoV-229E MOI 0.05, 6 days at 34° C., ATPlite, duplicate, ranges defined in μM

SMILES | IC50 [1] [nM] | EC50 [2] [µM] | EC50 [2, 3] [µM]
CC(C)C[C@@H](C(=O)N1C[C@]2(C[C@H]1C#N)C(=O)Nc1ccccc12)N(C)C(=O)[C@H](CC1CCC1)NC(=O)c1cc2c(F)cc(F)c(F)c2[nH]1 [Example 45] | < 100 | 0.1 to 1 | 
CC(C)[C@@H](NC(=O)c1cc2c(F)cc(F)c(F)c2[nH]1)C(=O)N[C@@H](CC(C)(C)C)C(=O)N1C[C@]2(C[C@H]1C#N)C(=O)Nc1ccccc12 [Example 93] | > 1000 | > 1 | 
Cc1cc(C(=O)N[C@@H](Cc2ccc(F)cc2)C(=O)N(C)[C@@H](CC(C)C)C(=O)N2C[C@]3(C[C@H]2C#N)C(=O)Nc2ccccc23)no1 [Example 4] | < 100 |  | < 0.1
CC(C)[C@H](NC(=O)OCc1ccccc1)C(=O)N[C@@H](CC(C)(C)C)C(=O)N1C[C@]2(C[C@H]1C#N)C(=O)Nc1ccccc12 [Example 86] | < 100 | 0.1 to 1 | 
CC(C)C[C@@H](C(=O)N1C[C@]2(C[C@H]1C#N)C(=O)Nc1ccccc12)N(C)C(=O)[C@H](CC1CCC1)NC(=O)C(C)(C)C [Example 42] | < 100 | < 0.1 | 
CC(C)[C@H](NC(=O)c1cc(F)c(F)c(F)c1)C(=O)N(C)[C@@H](CC(C)(C)C)C(=O)N1C[C@]2(C[C@H]1C#N)C(=O)Nc1ccccc12 [Example 108] | < 100 | 0.1 to 1 | 
COC(=O)N[C@H](C(=O)N(C)[C@@H](CC(C)C)C(=O)N1C[C@]2(C[C@H]1C#N)C(=O)Nc1ccccc12)C1CCCCC1 [Example 23] | < 100 | 0.1 to 1 | 
CC(=O)N(C)[C@@H](CC(C)(C)C)C(=O)N(C)[C@@H](CC(C)C)C(=O)N1C[C@]2(C[C@H]1C#N)C(=O)Nc1ccccc12 [Example 44] | < 100 | 0.1 to 1 | 
CC(=O)N[C@@H](CC1CC1)C(=O)N(C)[C@@H](CC(C)C)C(=O)N1C[C@]2(C[C@H]1C#N)C(=O)Nc1ccccc12 [Example 41] | < 100 | < 0.1 | 
CC(C)C[C@@H](C(=O)N1C[C@]2(C[C@H]1C#N)C(=O)Nc1ccccc12)N(C)C(=O)[C@@H](NC(=O)C(F)(F)F)C(C)(C)C [Example 12] | < 100 | 0.1 to 1 | 
CC(C)[C@H](NC(=O)C(F)(F)F)C(=O)N[C@@H](CC(C)(C)C)C(=O)N1C[C@]2(C[C@H]1C#N)C(=O)Nc1ccccc12 [Example 90] | < 100 | 0.1 to 1 | 
COc1cc(C(=O)N[C@@H](CC2CC2)C(=O)N(C)[C@@H](CC(C)(C)C)C(=O)N2C[C@]3(C[C@H]2C#N)C(=O)Nc2ccccc23)cc2cn(C3CC3)nc12 [Example 123] | < 100 | 0.1 to 1 | 
CN(C(=O)[C@@H](N)C(C)(C)C)[C@@H](Cc1ccccc1)C(=O)N1C[C@]2(C[C@H]1C#N)C(=O)Nc1ccccc12 [Example 29] | < 100 | 0.1 to 1 | 
CC(C)C(=O)N[C@@H](CC1CC1)C(=O)N(C)[C@@H](CC(C)(C)C)C(=O)N1C[C@]2(C[C@H]1C#N)C(=O)Nc1ccccc12 [Example 80] | < 100 | < 0.1 | 
CC(=O)N[C@H](C(=O)N[C@@H](CC(C)(C)C)C(=O)N1C[C@]2(C[C@H]1C#N)C(=O)Nc1ccccc12)C(C)C [Example 88] | 100 to 1000 | 0.1 to 1 | 
CN(C(=O)[C@H](Cc1ccc(F)cc1)N1CCCC1=O)[C@@H](CC(C)(C)C)C(=O)N1C[C@]2(C[C@H]1C#N)C(=O)Nc1ccccc12 [Example 67] | < 100 | < 0.1 | 

SMILES | IC50 [1] [nM] | EC50 [2] [µM] | EC50 [2, 3] [µM]
CN(C(=O)[C@H](CC1CC1)NS(=O)(=O)c1ccn(-c2ccc(F)cc2)n1)[C@@H](CC(C)(C)C)C(=O)N1C[C@]2(C[C@H]1C#N)C(=O)Nc1ccccc12 [Example 70] | < 100 | < 0.1 | 
CN(C(=O)[C@H](CC1CC1)NC(=O)C1COC1)[C@@H](CC(C)(C)C)C(=O)N1C[C@]2(C[C@H]1C#N)C(=O)Nc1ccccc12 [Example 122] | < 100 | < 0.1 | 
CC(C)[C@H](NC(=O)c1cc2c(F)cc(F)c(F)c2[nH]1)C(=O)N[C@@H](CC(C)(C)C)C(=O)N1C[C@]2(C[C@H]1C#N)C(=O)Nc1ccccc12 [Example 92] | < 100 | 0.1 to 1 | 
Cc1cc(C(=O)N[C@H](C(=O)N(C)[C@@H](CC(C)C)C(=O)N2C[C@]3(C[C@H]2C#N)C(=O)Nc2ccccc23)C2CCCCC2)no1 [Example 40] | < 100 | 0.1 to 1 | 
CC(C)C[C@@H](C(=O)N1C[C@]2(C[C@H]1C#N)C(=O)Nc1ccccc12)N(C)C(=O)[C@H](CC1CC1)NC(=O)OCc1ccccc1 [Example 14] | < 100 | < 0.1 | 
CC(C)[C@H](NC(=O)N1CCCCC1)C(=O)N(C)[C@@H](CC(C)(C)C)C(=O)N1C[C@]2(C[C@H]1C#N)C(=O)Nc1ccccc12 [Example 112] | < 100 | 0.1 to 1 | 
CC(C)C[C@@H](C(=O)N1C[C@]2(C[C@H]1C#N)C(=O)Nc1ccccc12)N(C)C(=O)[C@@H](NC(=O)C(F)(F)F)C1CCCCC1 [Example 21] | < 100 | < 0.1 | 
CC(C)C[C@@H](C(=O)N1C[C@]2(C[C@H]1C#N)C(=O)Nc1ccccc12)N(C)C(=O)[C@H](CC(C)(C)C)NC(=O)OCc1ccccc1 [Example 25] | < 100 | < 0.1 | 
[2H]C([2H])([2H])N(C(=O)[C@H](CC1CC1)NC(=O)C(F)(F)F)[C@@H](Cc1ccc(F)cc1)C(=O)N1C[C@]2(C[C@H]1C#N)C(=O)Nc1ccccc12 [Example 74] | < 100 | < 0.1 | 
CN(C(=O)[C@H](CC1CC1)NC(=O)C(F)(F)F)[C@@H](CC(C)(C)C)C(=O)N1C[C@]2(C[C@H]1C#N)C(=O)Nc1ccccc12 [Example 75] | < 100 | < 0.1 | 
CC(=O)N[C@@H](CC1CC1)C(=O)N(C)[C@@H](CC(C)(C)C)C(=O)N1C[C@]2(C[C@H]1C#N)C(=O)Nc1ccccc12 [Example 78] | < 100 | < 0.1 | 
COC(=O)N[C@H](C(=O)N(C)[C@@H](CC(C)C)C(=O)N1C[C@]2(C[C@H]1C#N)C(=O)Nc1ccccc12)C(C)(C)C [Example 13] | < 100 | 0.1 to 1 | 
CN(C(=O)[C@H](Cc1ccc(F)cc1)n1cc(C2CC2)nn1)[C@@H](CC(C)(C)C)C(=O)N1C[C@]2(C[C@H]1C#N)C(=O)Nc1ccccc12 [Example 9] | < 100 |  | < 0.1
CC(C)[C@H](NC(=O)OCC1(c2ccccc2)CC1)C(=O)N(C)[C@@H](CC(C)(C)C)C(=O)N1C[C@]2(C[C@H]1C#N)C(=O)Nc1ccccc12 [Example 110] | < 100 | 0.1 to 1 | 
CN(C(=O)[C@H](Cc1ccc(F)cc1)N1CCOC1=O)[C@@H](CC(C)(C)C)C(=O)N1C[C@]2(C[C@H]1C#N)C(=O)Nc1ccccc12 [Example 52] | < 100 | < 0.1 | 
